Source: ChEMBL document CHEMBL1641457, “The synthesis and biological evaluation of 1-C-alkyl-L-arabinoiminofuranoses, a novel class of α-glucosidase inhibitors” (Bioorg Med Chem Lett, 2011)

How the values were obtained:
Rattus norvegicus = organism: Rattus norvegicus; test: Inhibition of Wistar rat small intestine cellobiase at 1000 uM after 30 mins
[1] = target: Lactase/phlorizin hydrolase (Rattus norvegicus) (UniProt Q02401); test: Inhibition of Wistar rat small intestine lactase at 1000 uM after 30 mins
[2] = target: T1, Sucrase-isomaltase, intestinal (Rattus norvegicus, UniProt P23739); test: Inhibition of Wistar rat small intestine sucrase after 30 mins
[3] = target: T1, Sucrase-isomaltase, intestinal; test: Inhibition of Wistar rat small intestine isomaltase after 30 mins
[4] = target: Sucrase-isomaltase, intestinal (Rattus norvegicus) (UniProt P23739); test: Inhibition of Wistar rat small intestine isomaltase at 1000 uM after 30 mins
[5] = target: Lysosomal alpha-glucosidase (Rattus norvegicus) (UniProt Q6P7A9); details: Wistar, 1000 uM
Chain of Lysosomal alpha-glucosidase (Rattus norvegicus) (Q6P7A9 whole entry): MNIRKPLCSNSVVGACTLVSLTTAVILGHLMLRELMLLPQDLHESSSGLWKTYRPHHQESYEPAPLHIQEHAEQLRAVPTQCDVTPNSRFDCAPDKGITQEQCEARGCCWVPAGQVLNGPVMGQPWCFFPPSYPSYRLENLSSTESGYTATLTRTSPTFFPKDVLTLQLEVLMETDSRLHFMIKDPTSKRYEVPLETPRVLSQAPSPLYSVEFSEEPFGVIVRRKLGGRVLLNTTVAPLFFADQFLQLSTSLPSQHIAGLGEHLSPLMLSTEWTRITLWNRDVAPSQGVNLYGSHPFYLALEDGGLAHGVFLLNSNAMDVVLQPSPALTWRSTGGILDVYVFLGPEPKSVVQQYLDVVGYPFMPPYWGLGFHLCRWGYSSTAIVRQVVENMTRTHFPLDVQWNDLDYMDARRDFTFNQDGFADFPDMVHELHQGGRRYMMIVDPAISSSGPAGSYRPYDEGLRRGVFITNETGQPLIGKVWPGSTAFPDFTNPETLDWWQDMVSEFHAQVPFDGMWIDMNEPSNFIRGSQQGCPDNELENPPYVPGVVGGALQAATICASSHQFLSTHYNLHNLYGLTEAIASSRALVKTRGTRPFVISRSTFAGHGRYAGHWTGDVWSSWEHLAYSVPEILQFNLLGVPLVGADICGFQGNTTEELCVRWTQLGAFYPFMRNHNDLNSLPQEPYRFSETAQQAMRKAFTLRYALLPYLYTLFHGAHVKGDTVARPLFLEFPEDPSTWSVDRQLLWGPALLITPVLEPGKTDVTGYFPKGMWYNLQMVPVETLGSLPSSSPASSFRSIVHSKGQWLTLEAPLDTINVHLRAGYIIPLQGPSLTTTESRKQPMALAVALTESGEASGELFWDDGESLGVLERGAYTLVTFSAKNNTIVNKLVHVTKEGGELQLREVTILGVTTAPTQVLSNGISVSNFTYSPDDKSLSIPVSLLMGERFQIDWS
Description: Inhibition of Wistar rat small intestine maltase at 1000 uM after 30 mins

Chain of Sucrase-isomaltase, intestinal (Rattus norvegicus) (P23739 1-1013 limits assumed): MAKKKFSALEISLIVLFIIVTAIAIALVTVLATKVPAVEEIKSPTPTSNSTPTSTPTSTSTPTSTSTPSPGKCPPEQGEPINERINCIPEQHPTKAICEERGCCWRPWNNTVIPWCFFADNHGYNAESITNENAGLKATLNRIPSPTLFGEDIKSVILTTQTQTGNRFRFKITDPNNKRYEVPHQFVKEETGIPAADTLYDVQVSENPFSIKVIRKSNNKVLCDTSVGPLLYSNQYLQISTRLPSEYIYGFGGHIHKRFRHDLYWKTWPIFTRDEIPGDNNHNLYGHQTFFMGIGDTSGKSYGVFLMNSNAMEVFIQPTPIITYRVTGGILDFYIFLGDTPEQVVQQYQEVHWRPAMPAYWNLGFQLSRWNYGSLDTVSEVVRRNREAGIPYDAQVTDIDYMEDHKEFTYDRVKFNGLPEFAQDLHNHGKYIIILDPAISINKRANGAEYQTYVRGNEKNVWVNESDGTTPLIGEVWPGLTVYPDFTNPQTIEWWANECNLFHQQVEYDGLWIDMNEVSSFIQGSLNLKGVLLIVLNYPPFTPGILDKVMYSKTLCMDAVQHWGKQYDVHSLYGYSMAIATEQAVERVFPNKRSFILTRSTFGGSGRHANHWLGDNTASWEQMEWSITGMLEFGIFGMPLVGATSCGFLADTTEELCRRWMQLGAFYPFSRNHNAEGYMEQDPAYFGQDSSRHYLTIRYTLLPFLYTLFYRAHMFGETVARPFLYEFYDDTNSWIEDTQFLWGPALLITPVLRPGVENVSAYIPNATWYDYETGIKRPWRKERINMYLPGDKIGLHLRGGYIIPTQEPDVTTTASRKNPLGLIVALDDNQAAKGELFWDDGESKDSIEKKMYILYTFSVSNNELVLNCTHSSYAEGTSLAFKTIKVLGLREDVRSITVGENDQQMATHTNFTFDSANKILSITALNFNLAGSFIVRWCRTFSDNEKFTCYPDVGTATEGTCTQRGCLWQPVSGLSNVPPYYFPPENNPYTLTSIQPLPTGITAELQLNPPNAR
Chain of Sucrase-isomaltase, intestinal (Rattus norvegicus) (P23739 1014-1841 limits assumed): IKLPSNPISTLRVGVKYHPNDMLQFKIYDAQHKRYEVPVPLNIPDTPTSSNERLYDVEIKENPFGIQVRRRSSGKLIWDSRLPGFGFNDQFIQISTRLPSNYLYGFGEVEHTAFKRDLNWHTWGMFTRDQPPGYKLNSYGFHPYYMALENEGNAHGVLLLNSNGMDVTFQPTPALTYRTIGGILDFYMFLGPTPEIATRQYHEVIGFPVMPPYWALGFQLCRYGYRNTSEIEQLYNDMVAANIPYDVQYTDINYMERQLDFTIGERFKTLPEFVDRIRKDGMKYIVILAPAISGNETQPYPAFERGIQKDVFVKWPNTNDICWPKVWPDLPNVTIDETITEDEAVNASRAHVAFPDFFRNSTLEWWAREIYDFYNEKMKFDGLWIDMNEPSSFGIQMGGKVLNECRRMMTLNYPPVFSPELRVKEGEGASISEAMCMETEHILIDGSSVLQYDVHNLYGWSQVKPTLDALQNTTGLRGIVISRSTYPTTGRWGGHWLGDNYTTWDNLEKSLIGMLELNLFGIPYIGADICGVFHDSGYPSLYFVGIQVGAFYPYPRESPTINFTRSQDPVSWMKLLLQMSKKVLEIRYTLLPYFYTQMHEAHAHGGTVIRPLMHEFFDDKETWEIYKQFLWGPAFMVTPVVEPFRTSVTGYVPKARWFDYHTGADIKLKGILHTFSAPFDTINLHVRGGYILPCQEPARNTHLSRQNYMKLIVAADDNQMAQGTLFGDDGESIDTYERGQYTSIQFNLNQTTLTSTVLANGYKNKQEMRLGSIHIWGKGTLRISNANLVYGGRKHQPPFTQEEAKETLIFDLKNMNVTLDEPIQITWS
T1 sequence (P23739 1-1013 limits assumed): as the sequence (P23739 1-1013 limits assumed) above
T1 sequence (P23739 1014-1841 limits assumed): as the sequence (P23739 1014-1841 limits assumed) above
Chain of Lactase/phlorizin hydrolase (Rattus norvegicus) (Q02401 868-1928 limits assumed): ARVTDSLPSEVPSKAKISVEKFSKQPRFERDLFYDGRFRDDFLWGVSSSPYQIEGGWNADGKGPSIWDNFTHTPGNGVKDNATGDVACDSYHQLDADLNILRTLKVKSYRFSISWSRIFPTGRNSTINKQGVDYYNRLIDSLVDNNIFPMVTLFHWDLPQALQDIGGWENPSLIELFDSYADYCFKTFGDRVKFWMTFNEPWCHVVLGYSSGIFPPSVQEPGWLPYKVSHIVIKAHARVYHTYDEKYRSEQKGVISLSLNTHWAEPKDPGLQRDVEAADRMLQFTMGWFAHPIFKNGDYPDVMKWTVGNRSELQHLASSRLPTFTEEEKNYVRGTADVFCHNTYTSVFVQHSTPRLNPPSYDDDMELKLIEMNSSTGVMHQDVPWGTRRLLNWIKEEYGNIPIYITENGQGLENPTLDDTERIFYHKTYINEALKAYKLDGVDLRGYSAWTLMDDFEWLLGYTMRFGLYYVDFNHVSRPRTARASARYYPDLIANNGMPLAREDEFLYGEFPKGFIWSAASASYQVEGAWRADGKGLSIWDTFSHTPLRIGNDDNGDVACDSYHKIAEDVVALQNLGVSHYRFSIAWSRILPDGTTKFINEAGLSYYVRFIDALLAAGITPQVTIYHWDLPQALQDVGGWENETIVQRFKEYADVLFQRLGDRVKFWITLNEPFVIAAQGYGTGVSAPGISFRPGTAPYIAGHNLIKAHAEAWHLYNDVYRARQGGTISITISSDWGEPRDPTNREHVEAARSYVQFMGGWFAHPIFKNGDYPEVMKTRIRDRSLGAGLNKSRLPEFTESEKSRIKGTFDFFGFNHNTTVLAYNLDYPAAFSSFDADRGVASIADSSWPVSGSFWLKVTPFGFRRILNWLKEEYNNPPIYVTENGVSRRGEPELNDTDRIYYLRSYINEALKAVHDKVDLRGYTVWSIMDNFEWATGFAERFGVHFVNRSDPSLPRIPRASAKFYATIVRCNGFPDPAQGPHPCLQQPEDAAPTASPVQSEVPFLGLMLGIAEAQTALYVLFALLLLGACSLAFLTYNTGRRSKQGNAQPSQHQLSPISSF

inhibition (Rattus norvegicus) | inhibition [1] | IC50 [2] | IC50 [3] | inhibition [4] | inhibition [5] | Structure (SMILES)
< 50% | < 50% | 0.11 µM | 11 µM |  |  | CCCCCC[C@@H]1N[C@@H](CO)[C@H](O)[C@H]1O
< 50% | < 50% | 0.19 µM | 18 µM |  |  | CCCCC[C@@H]1N[C@@H](CO)[C@H](O)[C@H]1O
< 50% | < 50% | 0.37 µM | 5.2 µM |  |  | OCC(CO)N[C@H]1C[C@](O)(CO)[C@@H](O)[C@H](O)[C@H]1O [VOGLIBOSE]
< 50% | < 50% | 8.8 µM |  | < 50% |  | CCCC[C@H]1[C@H](O)[C@@H](O)[C@H](CO)N1CCCC
< 50% | < 50% | 392 µM |  | < 50% | < 50% | CCCC[C@H]1N[C@@H](CO)[C@H](O)[C@H]1O
< 50% | < 50% | 590 µM |  | < 50% |  | CCCCCCCC[C@H]1N[C@@H](CO)[C@H](O)[C@H]1O
< 50% | < 50% | 0.45 µM | 75 µM |  |  | CCCCCCCC[C@@H]1N[C@@H](CO)[C@H](O)[C@H]1O
< 50% | < 50% | 13 µM |  | < 50% |  | CCCCCCCCCCC[C@@H]1N[C@@H](CO)[C@H](O)[C@H]1O
< 50% | < 50% | 0.24 µM | 16 µM |  |  | CCCCCCC[C@@H]1N[C@@H](CO)[C@H](O)[C@H]1O
< 50% | < 50% | 1.4 µM | 171 µM |  |  | CCCCCCCCC[C@@H]1N[C@@H](CO)[C@H](O)[C@H]1O
< 50% | < 50% | 1.7 µM | 606 µM |  |  | CCCCCCCCCC[C@@H]1N[C@@H](CO)[C@H](O)[C@H]1O
< 50% | < 50% | 0.68 µM | 11 µM |  |  | CC[C@@H]1N[C@@H](CO)[C@H](O)[C@H]1O
< 50% | < 50% | 0.032 µM | 4.7 µM |  |  | CCCC[C@@H]1N[C@@H](CO)[C@H](O)[C@H]1O
< 50% | < 50% |  |  |  |  | OCCN1C[C@H](O)[C@@H](O)[C@H](O)[C@H]1CO [MIGLITOL]
< 50% | < 50% | 0.26 µM | 47 µM |  |  | CCC[C@@H]1N[C@@H](CO)[C@H](O)[C@H]1O
< 50% | < 50% |  |  | < 50% |  | C[C@H]1O[C@H](O[C@H]2[C@H](O)[C@@H](O)[C@@H](O[C@H]3[C@H](O)[C@@H](O)C(O)O[C@@H]3CO)O[C@@H]2CO)[C@H](O)[C@@H](O)[C@@H]1N[C@H]1C=C(CO)[C@@H](O)[C@H](O)[C@H]1O (some centres not stated)
